According to patent US9908873B2, “GPR40 agonists for the treatment of type II diabetes” (Janssen Pharmaceutica NV, priority 2015, dated 2018):
Several values for one entry are separate records, joined by “and”; a condition that tells them apart may be missing. Equal values may be shown once.

Molecular target: T1, human GPR40 (Homo sapiens, UniProt O14842)
T1 construct: expressed in transfected cells
Assay: GPR40 Calcium Flux Assay
Assay type: cell-based
Conditions: transfected HEK293 cells stably expressing human GPR40; calcium-sensitive fluorescent dye; read-out: hGPR40 Ca^2+ Assay EC50
Method: Compounds were tested in a calcium flux assay using transfected HEK293 cells stably expressing either human GPR40 or rat GPR40. Human GPR40 expressing cells were cultured in DMEM-High Glucose media supplemented with 10% fetal bovine serum, 1×L-Glutamine, 1×Penicillin/Streptomycin and 500 μg/mL G418. Rat GPR40 expressing cells were cultured in DMEM-High Glucose media supplemented with 10% fetal bovine serum and 1 μg/mL puromycin. Cells were plated into poly-D-lysine coated 384-well plates and cultured overnight in a 37° C. humidified tissue culture incubator under 5% CO2/[…] atmosphere. On the day of the experiment, the culture media was replaced with assay buffer (HBSS, 20 mM HEPES, 0.1% BSA) and the cells incubated at 37° C. for 1 h. Calcium-sensitive fluorescent dye (Fluo 8 No-Wash Calcium Dye, ABD Bioquest) was then added and the cells incubated for another 30 min at 37° C. followed by 15 min at room temperature while protected from the light. The cell plate and a plate of diluted compounds of Formula (II) were loaded into a fluorescent plate reader that added compounds onto the cells while measuring the fluorescence intensity of each well. The plate reader recorded fluorescence intensity at 1 second intervals for 8 min and provided the data for analysis in an Excel format. EC50 values were calculated using Prism (GraphPad) software.

T1 sequence (O14842 whole entry): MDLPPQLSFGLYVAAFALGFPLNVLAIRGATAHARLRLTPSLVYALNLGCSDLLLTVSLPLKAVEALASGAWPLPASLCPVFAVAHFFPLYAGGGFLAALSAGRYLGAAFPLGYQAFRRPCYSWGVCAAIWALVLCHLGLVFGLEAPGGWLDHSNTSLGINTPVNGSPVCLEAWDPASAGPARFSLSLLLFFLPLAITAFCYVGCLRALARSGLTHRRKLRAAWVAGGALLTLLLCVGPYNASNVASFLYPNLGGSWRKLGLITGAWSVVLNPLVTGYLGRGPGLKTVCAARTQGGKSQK

Compound	EC50
COc1ccc(F)c(-c2noc(CCc3cccc([C@@H](CC(=O)O)C4CC4)c3)c2C2CC2)c1 [Cpd 57, (3S)-3-cyclopropyl-3-[3-[2-[4-cyclopropyl-3-(2-fluoro-5-methoxy-phenyl)isoxazol-5-yl]ethyl]phenyl]propanoic acid]	25 nM
COc1ccc(F)c(-c2noc(CCc3cccc([C@@H](CC(=O)O)C4CC4)c3)c2C2CCCC2(C)C)c1 (stereo partly drawn) [Cpd 54, (3S)-3-cyclopropyl-3-[3-[2-[4-(2,2-dimethylcyclopentyl)-3-(2-fluoro-5-methoxy-phenyl)isoxazol-5-yl]ethyl]phenyl]propanoic acid]	1 nM
COc1ccc(F)c(-c2cc(COc3cccc([C@@H](CC(=O)O)C4CC4)c3)sc2C(C)(C)C)c1 [Cpd 60, (3S)-3-[3-[[5-tert-butyl-4-(2-fluoro-5-methoxy-phenyl)-2-thienyl]methoxy]phenyl]-3-cyclopropyl-propanoic acid]	56 nM and 29 nM
COc1ccc(F)c(-c2noc(/C=C/c3cccc([C@@H](CC(=O)O)C4CC4)c3)c2C2=CCCC2(C)C)c1 [Cpd 56, (3S)-3-cyclopropyl-3-[3-[(E)-2-[4-(5,5-dimethylcyclopenten-1-yl)-3-(2-fluoro-5-methoxy-phenyl)isoxazol-5-yl]vinyl]phenyl]propanoic acid]	23 nM
COc1ccc(F)c(-c2noc(COc3cc(C(CC(=O)O)C4CC4)c(Cl)cn3)c2C2=CCCC2(C)C)c1 (stereo not shown) [Cpd 55, 3-[5-chloro-2-[[4-(5,5-dimethylcyclopenten-1-yl)-3-(2-fluoro-5-methoxy-phenyl)isoxazol-5-yl]methoxy]-4-pyridyl]-3-cyclopropyl-propanoic acid]	22 nM
COc1ccc(F)c(-c2noc(/C=C/c3cccc(C(CC(=O)O)C4CC4)c3)c2C2CC2)c1 (stereo in doubt) [Cpd 58, (3S)-3-cyclopropyl-3-[3-[(E)-2-[4-cyclopropyl-3-(2-fluoro-5-methoxy-phenyl)isoxazol-5-yl]vinyl]phenyl]propanoic acid]	26 nM
COc1ccc(F)c(-c2nsc(COc3cccc([C@@H](CC(=O)O)C4CC4)c3)c2C2=CCCC2(C)C)c1 [Cpd 61, (3S)-3-cyclopropyl-3-[3-[[4-(5,5-dimethylcyclopenten-1-yl)-3-(2-fluoro-5-methoxy-phenyl)isothiazol-5-yl]methoxy]phenyl]propanoic acid]	260 nM and 205 nM
COc1ccc(F)c(-c2noc(/C=C\c3cccc([C@@H](CC(=O)O)C4CC4)c3)c2C2=CCCC2(C)C)c1 [Cpd 59, (3S)-3-cyclopropyl-3-[3-[(Z)-2-[4-(5,5-dimethylcyclopenten-1-yl)-3-(2-fluoro-5-methoxy-phenyl)isoxazol-5-yl]vinyl]phenyl]propanoic acid]	252 nM
COc1ccc(F)c(-c2noc(COc3cccc([C@@H](CC(=O)O)C4CC4)c3)c2C2=CCCC2(C)C)c1 [Cpd 62, (3S)-3-cyclopropyl-3-[3-[[4-(5,5-dimethylcyclopenten-1-yl)-3-(2-fluoro-5-methoxy-phenyl)isoxazol-5-yl]methoxy]phenyl]propanoic acid]	1 nM
COc1ccc(F)c(-c2noc(COc3cc(C(CC(=O)O)C4CC4)ccn3)c2C2=CCCC2(C)C)c1 (stereo not shown) [Cpd 53, 3-cyclopropyl-3-[2-[[4-(5,5-dimethylcyclopenten-1-yl)-3-(2-fluoro-5-methoxy-phenyl)isoxazol-5-yl]methoxy]-4-pyridyl]propanoic acid]	1 nM
